Test results published in US11311538B2, “Compositions and methods for targeting cancers” (YALE UNIVERSITY, priority 2018, dated 2022).

What was measured:
poly-ADP-ribose (PAR) = experiment: Western blot of PAR levels in xenograft tumors; type: in vivo, mouse; settings: 24 h post treatment (FIGS. 9A-9B)
Method: Western Blot analyses. Western blot analysis of protein levels was conducted by loading 30 μg of whole cell lysate onto a 4-20% polyacrylamide gel. Total protein was transferred to a nitrocellulose membrane. After blocking with 5% milk, membranes were incubated with primary antibodies. Antibodies used were: Rabbit monoclonal anti-Fumarase (D9C5,Cell Signaling Technologies) 1:1000 in 5% BSA, mouse monoclonal anti-SDHB (21A11AE7, Abcam) 1:1000 in % 5 milk, mouse monoclonal anti-Vinculin (SPM227, Abcam) 1:1000 in 5% milk, rabbit polyclonal anti-Histone 3 Lysine 36 trimethyl (9050, Abcam) 1:500 in 5% BSA, anti-Histone 3 Lysine 9 trimethyl (D4W1U, Cell Signaling Technologies) 1:1000 in 5% BSA, mouse monoclonal anti-Beta Actin (60008, Protein Tech) 1:5000 5% milk, rabbit Polyclonal anti-Histone H3 (ab1791, Abcam 1:5000 5% BSA), rabbit Polyclonal anti-PAR (4336-BPC-100, Trevigen) 1:5000 5% BSA, mouse monoclonal anti-GAPDH (60004 Protein Tech) 1:5000 5% milk, mouse monoclonal anti-BRCA2 (ab1, Millipore, 1:1000 5% Milk), mouse monoclonal anti-BRCA1 (D-9, Santa Cruz, 1:200 5% milk), mouse monoclonal anti-RAD51(14B4 Novus bio, 1:1000 5% milk). Patient sample blots were reprobed. […] Doxycycline induced knockdown was monitored by western blot as well as by RFP fluorescence from the internal and dox-inducible reporter on the TRIPZ construct. […]

[1] = test system: HLRCC UOK 262 xenograft tumors; experiment: Tumor growth delay assay, UOK 262 xenografts; type: in vivo, mouse; settings: BMN-673 0.5 mg/kg gavage daily, started at average tumor size 250 mm^3 (FIG. 4M)
Description: In vivo efficacy studies: HEK293FT xenografts. Female athymic nu/nu mice (Hsd:Athymic Nude-Foxnlnu, Envigo) were used for all in vivo xenograft studies. Mice were quarantined for at least 1 week before experimental manipulation. Tumors were formed using shRNA-expressing versions of the tumorigenic human embryonic kidney cell-derived line, HEK293FT. HEK293FT is a subline of HEK293 cells that has been transformed by expression of SV40 Large T-antigen. […], or shCTRL (non-targeted control) expressing HEK293FT cells were implanted subcutaneously (5×10^6 cells in 0.1 cc PBS) in the right flank of nude mice. Two efficacy studies were conducted. In one, mice were randomized into treatment and non-treated groups (10 mice/group) at day 3, with treatment initiation 4 days post implant. In a second independent in vivo efficacy study, mice were injected as above with 10 mice per group, and treatment was started only once the tumor volumes reached […]. For both studies, mice were visually observed daily and tumors were measured three times per week by calipers to determine tumor volume using the formula: Volume=L×W×W×0.532. Mice were fed with a grain based rodent diet containing Doxycycline at 200 mg/kg (Bioserv, Catalog #S3888). […] P-values were determined by ANOVA with repeated measures. […]

Cn1ncnc1[C@H]1c2n[nH]c(=O)c3cc(F)cc(c23)N[C@@H]1c1ccc(F)cc1 [BMN-673, BMN-673 (Talazoparib)]
PAR levels by western blot, SDHB knockdown vs shCTRL tumors (poly-ADP-ribose (PAR)): reduced to the same extent | tumor growth delay, UOK 262 xenografts [1]: substantial growth delay
